Several values for one entry are separate records, joined by “and”; a condition that tells them apart may be missing. Equal entries are not always repeated.
Conditions: 283.14 K, Liquid, Vibrating tube method

CCCCCCCCCC [decane]
Conditions	mass density
322 kPa	737.5 kg/m3
338 kPa	737.7 kg/m3
385 kPa	737.6 kg/m3
479 kPa	737.8 kg/m3
514 kPa	737.8 kg/m3
551 kPa	737.8 kg/m3
574 kPa	737.8 kg/m3
589 kPa	737.8 kg/m3
615 kPa	737.9 kg/m3
633 kPa	737.9 kg/m3
651 kPa	737.9 kg/m3
665 kPa	737.9 kg/m3
683 kPa	737.8 kg/m3
700 kPa	737.8 kg/m3
721 kPa	737.8 kg/m3
740 kPa	737.9 kg/m3
763 kPa	738 kg/m3
783 kPa	737.9 kg/m3
808 kPa	738 kg/m3
833 kPa	738 kg/m3
857 kPa	738 kg/m3
877 kPa	738 kg/m3
899 kPa	738 kg/m3
931 kPa	738.1 kg/m3
966 kPa	738.2 kg/m3
995 kPa	738.1 kg/m3
1025 kPa	738.1 kg/m3
1066 kPa	738.2 kg/m3
1103 kPa	738.2 kg/m3
1133 kPa	738.1 kg/m3
1173 kPa	738.3 kg/m3
1217 kPa	738.3 kg/m3
1247 kPa	738.2 kg/m3
1299 kPa	738.3 kg/m3
1359 kPa	738.3 kg/m3
1404 kPa	738.5 kg/m3
1536 kPa	738.5 kg/m3
2661 kPa	739.4 kg/m3
2677 kPa	739.3 kg/m3
2694 kPa	739.3 kg/m3
2848 kPa	739.5 kg/m3
2888 kPa	739.4 kg/m3
2910 kPa	739.5 kg/m3
2926 kPa	739.5 kg/m3
2942 kPa	739.5 kg/m3
2959 kPa	739.6 kg/m3
2987 kPa	739.6 kg/m3
3024 kPa	739.7 kg/m3
3042 kPa	739.6 kg/m3
3053 kPa	739.6 kg/m3
3064 kPa	739.7 kg/m3
3084 kPa	739.6 kg/m3
3192 kPa	739.6 kg/m3
3239 kPa	739.7 kg/m3
3249 kPa	739.8 kg/m3
3261 kPa	739.8 kg/m3
3321 kPa	739.8 kg/m3
3332 kPa	739.8 kg/m3
3814 kPa	740.2 kg/m3
3824 kPa	740.1 kg/m3
3837 kPa	740.2 kg/m3
3847 kPa	740.3 kg/m3
3862 kPa	740.2 kg/m3
3876 kPa	740.1 kg/m3
3887 kPa	740.3 kg/m3
4382 kPa	740.6 kg/m3
4686 kPa	740.8 kg/m3
4709 kPa	740.9 kg/m3
4730 kPa	740.8 kg/m3
4749 kPa	740.9 kg/m3
4854 kPa	741 kg/m3
4879 kPa	741 kg/m3
4901 kPa	741 kg/m3
4924 kPa	740.9 kg/m3
4947 kPa	741 kg/m3
4968 kPa	741.1 kg/m3
4992 kPa	741.1 kg/m3
5006 kPa	741.1 kg/m3
5028 kPa	741 kg/m3
5042 kPa	741 kg/m3
5058 kPa	741.1 kg/m3
5077 kPa	741.1 kg/m3
5094 kPa	741.2 kg/m3
5117 kPa	741.1 kg/m3
5136 kPa	741 kg/m3
5156 kPa	741.1 kg/m3
5176 kPa	741.3 kg/m3
5205 kPa	741.3 kg/m3
5223 kPa	741.2 kg/m3
5244 kPa	741.2 kg/m3
5265 kPa	741.2 kg/m3
5316 kPa	741.3 kg/m3
5598 kPa	741.5 kg/m3
5751 kPa	741.6 kg/m3
5767 kPa	741.6 kg/m3
5776 kPa	741.6 kg/m3
5781 kPa	741.6 kg/m3
5783 kPa	741.6 kg/m3
5784 kPa	741.5 kg/m3 and 741.7 kg/m3
5793 kPa	741.7 kg/m3
5798 kPa	741.6 kg/m3
5802 kPa	741.6 kg/m3
5814 kPa	741.7 kg/m3
5816 kPa	741.6 kg/m3
5823 kPa	741.7 kg/m3
5833 kPa	741.6 kg/m3
5852 kPa	741.7 kg/m3
5869 kPa	741.7 kg/m3
5881 kPa	741.7 kg/m3
5888 kPa	741.6 kg/m3
5891 kPa	741.7 kg/m3
5895 kPa	741.8 kg/m3
5898 kPa	741.7 kg/m3
5902 kPa	741.8 kg/m3
5907 kPa	741.7 kg/m3
5910 kPa	741.7 kg/m3
5914 kPa	741.7 kg/m3
5929 kPa	741.7 kg/m3
6176 kPa	741.9 kg/m3
6202 kPa	741.9 kg/m3
6218 kPa	741.8 kg/m3
6237 kPa	741.9 kg/m3
6251 kPa	741.8 kg/m3
6269 kPa	741.9 kg/m3
6284 kPa	742 kg/m3
6304 kPa	741.9 kg/m3
6319 kPa	742 kg/m3
6335 kPa	742 kg/m3
6350 kPa	741.9 kg/m3
6373 kPa	742.1 kg/m3
6391 kPa	742.1 kg/m3
6409 kPa	742 kg/m3
6431 kPa	742 kg/m3
6452 kPa	742 kg/m3
6465 kPa	742.1 kg/m3
6481 kPa	742 kg/m3
6497 kPa	742.2 kg/m3
6519 kPa	742.2 kg/m3
6543 kPa	742.1 kg/m3
6560 kPa	742.2 kg/m3
6588 kPa	742.2 kg/m3
6610 kPa	742.2 kg/m3
7156 kPa	742.7 kg/m3
7171 kPa	742.6 kg/m3
7221 kPa	742.7 kg/m3
7240 kPa	742.6 kg/m3
7671 kPa	742.8 kg/m3
7684 kPa	742.9 kg/m3
7747 kPa	743 kg/m3
7758 kPa	743 kg/m3
7770 kPa	743 kg/m3
8186 kPa	743.2 kg/m3
8201 kPa	743.4 kg/m3
8217 kPa	743.3 kg/m3
8232 kPa	743.3 kg/m3
8252 kPa	743.3 kg/m3
8265 kPa	743.3 kg/m3
8279 kPa	743.3 kg/m3
8296 kPa	743.4 kg/m3
8848 kPa	743.8 kg/m3
8878 kPa	743.7 kg/m3
8907 kPa	743.7 kg/m3
8922 kPa	743.8 kg/m3
8936 kPa	743.9 kg/m3
8949 kPa	743.7 kg/m3
8964 kPa	743.9 kg/m3
8980 kPa	743.8 kg/m3
8992 kPa	743.9 kg/m3
9004 kPa	743.8 kg/m3
9019 kPa	743.8 kg/m3
9029 kPa	743.9 kg/m3
9038 kPa	743.8 kg/m3
9050 kPa	743.9 kg/m3
9059 kPa	743.9 kg/m3
9071 kPa	743.8 kg/m3
9080 kPa	743.9 kg/m3
9717 kPa	744.3 kg/m3
10364 kPa	744.7 kg/m3
10421 kPa	744.9 kg/m3
10435 kPa	744.9 kg/m3
10472 kPa	744.9 kg/m3
10482 kPa	744.8 kg/m3
10525 kPa	744.9 kg/m3
10552 kPa	744.9 kg/m3
10563 kPa	744.8 kg/m3
10574 kPa	745 kg/m3
10588 kPa	744.9 kg/m3
10597 kPa	744.9 kg/m3
10608 kPa	745 kg/m3
10620 kPa	745 kg/m3
10631 kPa	745 kg/m3
10646 kPa	745 kg/m3
10659 kPa	745 kg/m3
10673 kPa	745 kg/m3
10999 kPa	745.3 kg/m3
11564 kPa	745.6 kg/m3
11578 kPa	745.6 kg/m3
11593 kPa	745.6 kg/m3
11608 kPa	745.6 kg/m3
11694 kPa	745.7 kg/m3
11712 kPa	745.6 kg/m3
11728 kPa	745.8 kg/m3
11741 kPa	745.7 kg/m3
11759 kPa	745.7 kg/m3
13134 kPa	746.6 kg/m3
13157 kPa	746.7 kg/m3
13176 kPa	746.7 kg/m3
13196 kPa	746.7 kg/m3
13216 kPa	746.6 kg/m3
13236 kPa	746.7 kg/m3
13256 kPa	746.6 kg/m3
13276 kPa	746.7 kg/m3
13296 kPa	746.7 kg/m3
13358 kPa	746.8 kg/m3
13379 kPa	746.8 kg/m3
13400 kPa	746.9 kg/m3
13421 kPa	746.8 kg/m3
13438 kPa	746.8 kg/m3
13465 kPa	746.8 kg/m3
13489 kPa	746.9 kg/m3
13507 kPa	746.8 kg/m3
13528 kPa	746.8 kg/m3
13546 kPa	746.8 kg/m3
13574 kPa	746.9 kg/m3
13613 kPa	747 kg/m3
14239 kPa	747.3 kg/m3
14264 kPa	747.4 kg/m3
14287 kPa	747.4 kg/m3
14316 kPa	747.4 kg/m3
14335 kPa	747.4 kg/m3
14461 kPa	747.5 kg/m3
15158 kPa	748 kg/m3
15181 kPa	747.9 kg/m3
15201 kPa	748.1 kg/m3
15221 kPa	748 kg/m3
15259 kPa	748.1 kg/m3
15288 kPa	748 kg/m3
15328 kPa	748 kg/m3
16053 kPa	748.5 kg/m3
17575 kPa	749.4 kg/m3
17600 kPa	749.6 kg/m3
17681 kPa	749.6 kg/m3
18272 kPa	750 kg/m3
18327 kPa	750.1 kg/m3
18353 kPa	749.9 kg/m3
18410 kPa	750.1 kg/m3
18436 kPa	750.1 kg/m3
18466 kPa	750.1 kg/m3
18497 kPa	750.2 kg/m3
18520 kPa	750.2 kg/m3
18543 kPa	750.1 kg/m3
18605 kPa	750.2 kg/m3
18628 kPa	750.2 kg/m3
19272 kPa	750.6 kg/m3
19319 kPa	750.6 kg/m3
19342 kPa	750.7 kg/m3
19377 kPa	750.7 kg/m3
19413 kPa	750.7 kg/m3
20535 kPa	751.4 kg/m3
20578 kPa	751.3 kg/m3
20601 kPa	751.5 kg/m3
21429 kPa	752 kg/m3
21453 kPa	752 kg/m3
21475 kPa	751.9 kg/m3
21504 kPa	752 kg/m3
21533 kPa	752 kg/m3
21563 kPa	752.1 kg/m3
21589 kPa	752 kg/m3
21622 kPa	752.2 kg/m3
21647 kPa	752.1 kg/m3
21669 kPa	752.1 kg/m3
21696 kPa	752 kg/m3
21719 kPa	752.2 kg/m3
